{"source": "the kinase profiling compilation of Christmann-Franck et al. (2016)", "test_in_all_cases": "KINOMEscan competition binding", "details_in_all_cases": "compound 10.0 µM", "key": {"CDK19 (human)": {"biological_target": "CDK19 (human) (UniProt Q9BWU1)"}, "STK25 (human)": {"biological_target": "STK25 (human) (UniProt O00506)"}, "SNRK (human)": {"biological_target": "SNRK (human) (UniProt Q9NRH2)"}, "MAP3K15 (human)": {"biological_target": "MAP3K15 (human) (UniProt Q6ZN16)"}, "MET (human)": {"biological_target": "MET (human) (UniProt P08581)"}, "STK3 (human)": {"biological_target": "STK3 (human) (UniProt Q13188)", "sequence (Q13188 whole entry, looked up)": "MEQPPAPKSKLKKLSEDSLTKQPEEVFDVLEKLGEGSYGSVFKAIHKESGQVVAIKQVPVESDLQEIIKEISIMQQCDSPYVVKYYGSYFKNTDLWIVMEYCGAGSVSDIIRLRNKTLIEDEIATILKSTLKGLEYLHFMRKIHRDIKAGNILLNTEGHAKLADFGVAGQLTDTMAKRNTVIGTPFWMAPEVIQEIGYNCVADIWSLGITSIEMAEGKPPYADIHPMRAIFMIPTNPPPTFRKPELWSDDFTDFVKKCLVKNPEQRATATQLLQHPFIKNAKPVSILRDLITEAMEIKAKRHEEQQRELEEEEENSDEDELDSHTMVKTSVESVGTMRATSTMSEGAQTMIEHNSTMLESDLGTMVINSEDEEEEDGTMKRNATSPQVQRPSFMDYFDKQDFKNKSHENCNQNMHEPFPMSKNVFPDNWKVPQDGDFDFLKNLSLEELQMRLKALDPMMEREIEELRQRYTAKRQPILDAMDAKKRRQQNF"}, "MAP2K3 (human)": {"biological_target": "MAP2K3 (human) (UniProt P46734)", "sequence (P46734 whole entry, looked up)": "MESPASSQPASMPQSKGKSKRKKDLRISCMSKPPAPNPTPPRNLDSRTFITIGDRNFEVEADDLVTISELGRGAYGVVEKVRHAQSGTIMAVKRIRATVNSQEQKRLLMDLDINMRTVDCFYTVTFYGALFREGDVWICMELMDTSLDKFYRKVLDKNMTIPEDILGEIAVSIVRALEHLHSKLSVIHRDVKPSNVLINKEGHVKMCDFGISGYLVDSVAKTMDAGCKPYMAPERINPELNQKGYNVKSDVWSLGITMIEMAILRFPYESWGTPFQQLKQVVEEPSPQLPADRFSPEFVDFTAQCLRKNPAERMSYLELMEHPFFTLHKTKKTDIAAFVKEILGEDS"}, "STK38L (human)": {"biological_target": "STK38L (human) (UniProt Q9Y2H1)", "sequence (Q9Y2H1 whole entry, looked up)": "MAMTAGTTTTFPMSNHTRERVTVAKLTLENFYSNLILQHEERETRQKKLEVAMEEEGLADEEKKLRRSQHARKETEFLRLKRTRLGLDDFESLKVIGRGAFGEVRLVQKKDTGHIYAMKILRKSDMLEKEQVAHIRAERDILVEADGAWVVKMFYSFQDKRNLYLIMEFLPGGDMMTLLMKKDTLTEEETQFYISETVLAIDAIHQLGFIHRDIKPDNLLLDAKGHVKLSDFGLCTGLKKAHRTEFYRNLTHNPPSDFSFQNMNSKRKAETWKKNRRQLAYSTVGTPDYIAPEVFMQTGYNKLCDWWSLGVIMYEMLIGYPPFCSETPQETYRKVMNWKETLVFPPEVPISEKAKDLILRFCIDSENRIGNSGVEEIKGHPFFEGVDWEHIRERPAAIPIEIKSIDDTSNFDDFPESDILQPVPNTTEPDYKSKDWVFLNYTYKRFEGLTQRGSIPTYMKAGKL"}, "HIPK2 (human)": {"biological_target": "HIPK2 (human) (UniProt Q9H2X6)"}, "YSK4 (human)": {"biological_target": "YSK4 (human) (UniProt Q56UN5)"}, "CHEK2 (human)": {"biological_target": "CHEK2 (human) (UniProt O96017)"}, "WEE1 (human)": {"biological_target": "WEE1 (human) (UniProt P30291)"}, "PDGFRA (human)": {"biological_target": "PDGFRA (human) (UniProt P16234)"}, "CDK13 (human)": {"biological_target": "CDK13 (human) (UniProt Q14004)"}, "NEK3 (human)": {"biological_target": "NEK3 (human) (UniProt P51956)"}, "[1]": {"tested_on": "KIT (human), P10721 [V559D/V654A]"}, "CLK2 (human)": {"biological_target": "CLK2 (human) (UniProt P49760)"}, "PDPK1 (human)": {"biological_target": "PDPK1 (human) (UniProt O15530)", "sequence (O15530 whole entry, looked up)": "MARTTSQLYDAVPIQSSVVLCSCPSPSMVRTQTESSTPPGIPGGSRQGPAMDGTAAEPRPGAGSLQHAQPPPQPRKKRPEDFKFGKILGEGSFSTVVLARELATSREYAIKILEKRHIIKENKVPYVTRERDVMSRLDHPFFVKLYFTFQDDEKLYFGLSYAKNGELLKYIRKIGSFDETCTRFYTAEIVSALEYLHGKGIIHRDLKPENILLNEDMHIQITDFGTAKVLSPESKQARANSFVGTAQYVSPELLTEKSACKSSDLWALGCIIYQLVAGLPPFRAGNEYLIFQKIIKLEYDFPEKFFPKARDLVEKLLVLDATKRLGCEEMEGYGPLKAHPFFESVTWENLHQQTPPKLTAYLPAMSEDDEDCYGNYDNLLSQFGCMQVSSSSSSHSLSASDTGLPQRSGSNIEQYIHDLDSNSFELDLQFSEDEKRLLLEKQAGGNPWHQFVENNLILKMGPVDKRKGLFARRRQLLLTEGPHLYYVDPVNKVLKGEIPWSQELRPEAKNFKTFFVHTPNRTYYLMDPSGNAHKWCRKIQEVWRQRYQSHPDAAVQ"}, "DSTYK (human)": {"biological_target": "DSTYK (human) (UniProt Q6XUX3)"}, "RPS6KA3 KD1 (human)": {"biological_target": "RPS6KA3 KD1 (human) (UniProt P51812)"}, "PKN2 (human)": {"biological_target": "PKN2 (human) (UniProt Q16513)"}, "RPS6KA5 KD2 (human)": {"biological_target": "RPS6KA5 KD2 (human) (UniProt O75582)"}, "LCK (human)": {"biological_target": "LCK (human) (UniProt P06239)"}, "IRAK1 (human)": {"biological_target": "IRAK1 (human) (UniProt P51617)"}, "MYLK4 (human)": {"biological_target": "MYLK4 (human) (UniProt Q86YV6)"}, "[2]": {"tested_on": "RET (human), P07949 [V804M]", "sequence (P07949 whole entry V804M, looked up)": "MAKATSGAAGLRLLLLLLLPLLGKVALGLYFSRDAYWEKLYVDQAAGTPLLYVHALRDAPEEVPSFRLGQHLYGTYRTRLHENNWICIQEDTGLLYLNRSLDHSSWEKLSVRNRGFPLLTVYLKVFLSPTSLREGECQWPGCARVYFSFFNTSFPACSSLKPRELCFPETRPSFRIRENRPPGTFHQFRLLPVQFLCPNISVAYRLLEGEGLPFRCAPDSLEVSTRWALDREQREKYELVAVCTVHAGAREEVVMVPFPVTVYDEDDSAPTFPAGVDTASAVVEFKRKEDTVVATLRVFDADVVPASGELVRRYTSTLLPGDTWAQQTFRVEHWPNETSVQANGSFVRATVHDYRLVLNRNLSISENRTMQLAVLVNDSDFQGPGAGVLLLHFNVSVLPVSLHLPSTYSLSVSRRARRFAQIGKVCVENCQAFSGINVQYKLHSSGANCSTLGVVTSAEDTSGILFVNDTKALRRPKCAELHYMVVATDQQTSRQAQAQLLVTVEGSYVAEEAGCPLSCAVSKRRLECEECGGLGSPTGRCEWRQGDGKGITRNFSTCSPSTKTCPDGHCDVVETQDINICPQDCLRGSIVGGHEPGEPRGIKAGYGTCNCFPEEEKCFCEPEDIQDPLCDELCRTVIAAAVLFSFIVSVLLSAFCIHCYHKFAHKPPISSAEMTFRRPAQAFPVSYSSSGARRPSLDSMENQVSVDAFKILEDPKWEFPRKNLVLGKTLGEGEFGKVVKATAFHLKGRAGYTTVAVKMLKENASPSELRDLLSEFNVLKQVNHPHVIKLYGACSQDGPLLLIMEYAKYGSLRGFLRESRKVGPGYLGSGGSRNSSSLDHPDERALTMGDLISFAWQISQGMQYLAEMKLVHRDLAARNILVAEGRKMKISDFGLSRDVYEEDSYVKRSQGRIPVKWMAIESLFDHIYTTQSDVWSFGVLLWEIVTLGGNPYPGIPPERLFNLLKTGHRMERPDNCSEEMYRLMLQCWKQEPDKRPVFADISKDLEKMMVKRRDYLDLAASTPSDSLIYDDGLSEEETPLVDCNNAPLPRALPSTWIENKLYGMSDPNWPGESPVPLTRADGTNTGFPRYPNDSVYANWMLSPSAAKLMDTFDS"}, "SRPK3 (human)": {"biological_target": "SRPK3 (human) (UniProt Q9UPE1)"}, "CDK8 (human)": {"biological_target": "CDK8 (human) (UniProt P49336)", "sequence (P49336 whole entry, looked up)": "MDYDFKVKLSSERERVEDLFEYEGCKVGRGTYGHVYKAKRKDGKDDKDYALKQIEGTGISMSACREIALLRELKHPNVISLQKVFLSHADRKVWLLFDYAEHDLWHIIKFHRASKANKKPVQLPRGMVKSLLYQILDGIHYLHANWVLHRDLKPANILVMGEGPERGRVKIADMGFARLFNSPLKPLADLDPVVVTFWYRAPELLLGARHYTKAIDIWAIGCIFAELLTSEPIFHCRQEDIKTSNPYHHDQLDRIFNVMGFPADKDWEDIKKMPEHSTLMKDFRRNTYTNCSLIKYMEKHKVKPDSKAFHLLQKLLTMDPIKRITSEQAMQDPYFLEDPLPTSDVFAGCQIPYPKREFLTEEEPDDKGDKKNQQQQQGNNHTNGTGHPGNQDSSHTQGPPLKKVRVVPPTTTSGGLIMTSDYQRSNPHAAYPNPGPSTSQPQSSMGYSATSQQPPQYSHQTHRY"}, "[3]": {"tested_on": "EGFR (human), P00533 [T790M/L858R]"}, "SRPK2 (human)": {"biological_target": "SRPK2 (human) (UniProt P78362)"}, "MAPK9 (human)": {"biological_target": "MAPK9 (human) (UniProt P45984)"}, "IRAK4 (human)": {"biological_target": "IRAK4 (human) (UniProt Q9NWZ3)", "sequence (Q9NWZ3 whole entry, looked up)": "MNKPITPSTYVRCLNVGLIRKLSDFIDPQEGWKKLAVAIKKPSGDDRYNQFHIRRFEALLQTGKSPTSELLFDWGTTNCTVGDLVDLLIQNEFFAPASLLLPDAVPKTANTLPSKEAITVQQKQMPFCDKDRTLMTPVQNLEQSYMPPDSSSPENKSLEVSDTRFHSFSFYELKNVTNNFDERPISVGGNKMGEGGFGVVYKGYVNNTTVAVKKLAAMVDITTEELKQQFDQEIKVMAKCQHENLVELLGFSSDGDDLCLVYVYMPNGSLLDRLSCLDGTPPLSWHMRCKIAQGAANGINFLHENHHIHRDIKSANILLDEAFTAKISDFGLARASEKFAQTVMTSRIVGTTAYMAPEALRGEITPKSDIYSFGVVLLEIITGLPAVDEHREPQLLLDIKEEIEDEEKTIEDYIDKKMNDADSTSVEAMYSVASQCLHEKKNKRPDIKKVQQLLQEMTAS"}, "FGR (human)": {"biological_target": "FGR (human) (UniProt P09769)", "sequence (P09769 whole entry, looked up)": "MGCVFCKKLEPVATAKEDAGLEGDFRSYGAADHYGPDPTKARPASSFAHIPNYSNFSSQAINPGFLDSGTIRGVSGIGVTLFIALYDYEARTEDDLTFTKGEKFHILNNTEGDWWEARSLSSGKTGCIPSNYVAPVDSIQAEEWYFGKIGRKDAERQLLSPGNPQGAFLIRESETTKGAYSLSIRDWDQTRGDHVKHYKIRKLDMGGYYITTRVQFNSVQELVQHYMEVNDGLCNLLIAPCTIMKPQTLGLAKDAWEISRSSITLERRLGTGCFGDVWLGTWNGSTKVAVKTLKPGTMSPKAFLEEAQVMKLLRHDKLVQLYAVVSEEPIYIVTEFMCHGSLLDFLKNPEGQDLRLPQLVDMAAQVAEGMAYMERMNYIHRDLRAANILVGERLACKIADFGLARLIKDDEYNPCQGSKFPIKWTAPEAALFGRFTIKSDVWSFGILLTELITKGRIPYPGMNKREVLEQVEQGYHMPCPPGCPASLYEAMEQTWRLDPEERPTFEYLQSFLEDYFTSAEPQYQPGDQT"}, "RAF1 (human)": {"biological_target": "RAF1 (human) (UniProt P04049)"}, "CRK2 (P.falciparum)": {"biological_target": "CRK2 (P.falciparum) (UniProt P61075)"}, "RIPK2 (human)": {"biological_target": "RIPK2 (human) (UniProt O43353)"}, "TGFBR2 (human)": {"biological_target": "TGFBR2 (human) (UniProt P37173)", "sequence (P37173 whole entry, looked up)": "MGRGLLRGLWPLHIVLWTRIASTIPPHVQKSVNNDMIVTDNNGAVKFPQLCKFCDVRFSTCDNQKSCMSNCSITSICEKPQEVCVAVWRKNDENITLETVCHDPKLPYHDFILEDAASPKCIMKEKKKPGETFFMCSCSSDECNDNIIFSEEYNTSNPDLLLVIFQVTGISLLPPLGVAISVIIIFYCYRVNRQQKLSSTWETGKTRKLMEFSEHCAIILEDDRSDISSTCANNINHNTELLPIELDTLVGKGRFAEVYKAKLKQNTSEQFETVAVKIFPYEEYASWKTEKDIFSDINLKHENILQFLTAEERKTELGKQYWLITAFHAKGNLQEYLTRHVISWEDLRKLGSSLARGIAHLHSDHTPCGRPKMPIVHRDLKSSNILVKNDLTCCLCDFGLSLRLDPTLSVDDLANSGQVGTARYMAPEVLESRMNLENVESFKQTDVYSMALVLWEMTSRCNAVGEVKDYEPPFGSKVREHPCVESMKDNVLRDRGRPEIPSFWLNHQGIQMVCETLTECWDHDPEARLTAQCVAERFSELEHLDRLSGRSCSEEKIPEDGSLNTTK"}, "ROCK2 (human)": {"biological_target": "ROCK2 (human) (UniProt O75116)"}, "ULK1 (human)": {"biological_target": "ULK1 (human) (UniProt O75385)"}, "SRMS (human)": {"biological_target": "SRMS (human) (UniProt Q9H3Y6)"}}}
{"smiles": "COc1cc2ncnc(-n3nc(-c4ccccn4)nc3N)c2cc1OC", "values": [{"measurement": "kinase still bound, per cent of control", "setting": "CDK19 (human)", "result": 100, "unit": "%"}, {"measurement": "kinase still bound, per cent of control", "setting": "STK25 (human)", "result": 33, "unit": "%"}, {"measurement": "kinase still bound, per cent of control", "setting": "SNRK (human)", "result": 47, "unit": "%"}, {"measurement": "kinase still bound, per cent of control", "setting": "MAP3K15 (human)", "result": 54, "unit": "%"}, {"measurement": "kinase still bound, per cent of control", "setting": "MET (human)", "result": 55, "unit": "%"}, {"measurement": "kinase still bound, per cent of control", "setting": "STK3 (human)", "result": 54, "unit": "%"}, {"measurement": "kinase still bound, per cent of control", "setting": "MAP2K3 (human)", "result": 27, "unit": "%"}, {"measurement": "kinase still bound, per cent of control", "setting": "STK38L (human)", "result": 69, "unit": "%"}, {"measurement": "kinase still bound, per cent of control", "setting": "HIPK2 (human)", "result": 0.65, "unit": "%"}, {"measurement": "kinase still bound, per cent of control", "setting": "YSK4 (human)", "result": 0.45, "unit": "%"}, {"measurement": "kinase still bound, per cent of control", "setting": "CHEK2 (human)", "result": 78, "unit": "%"}, {"measurement": "kinase still bound, per cent of control", "setting": "WEE1 (human)", "result": 80, "unit": "%"}, {"measurement": "kinase still bound, per cent of control", "setting": "PDGFRA (human)", "result": 57, "unit": "%"}, {"measurement": "kinase still bound, per cent of control", "setting": "CDK13 (human)", "result": 17, "unit": "%"}, {"measurement": "kinase still bound, per cent of control", "setting": "NEK3 (human)", "result": 87, "unit": "%"}, {"measurement": "kinase still bound, per cent of control", "setting": "[1]", "result": 82, "unit": "%"}, {"measurement": "kinase still bound, per cent of control", "setting": "CLK2 (human)", "result": 1.8, "unit": "%"}, {"measurement": "kinase still bound, per cent of control", "setting": "PDPK1 (human)", "result": 90, "unit": "%"}, {"measurement": "kinase still bound, per cent of control", "setting": "DSTYK (human)", "result": 19, "unit": "%"}, {"measurement": "kinase still bound, per cent of control", "setting": "RPS6KA3 KD1 (human)", "result": 2.8, "unit": "%"}, {"measurement": "kinase still bound, per cent of control", "setting": "PKN2 (human)", "result": 79, "unit": "%"}, {"measurement": "kinase still bound, per cent of control", "setting": "RPS6KA5 KD2 (human)", "result": 33, "unit": "%"}, {"measurement": "kinase still bound, per cent of control", "setting": "LCK (human)", "result": 5.2, "unit": "%"}, {"measurement": "kinase still bound, per cent of control", "setting": "IRAK1 (human)", "result": 2.8, "unit": "%"}, {"measurement": "kinase still bound, per cent of control", "setting": "MYLK4 (human)", "result": 25, "unit": "%"}, {"measurement": "kinase still bound, per cent of control", "setting": "[2]", "result": 66, "unit": "%"}, {"measurement": "kinase still bound, per cent of control", "setting": "SRPK3 (human)", "result": 38, "unit": "%"}, {"measurement": "kinase still bound, per cent of control", "setting": "CDK8 (human)", "result": 100, "unit": "%"}, {"measurement": "kinase still bound, per cent of control", "setting": "[3]", "result": 84, "unit": "%"}, {"measurement": "kinase still bound, per cent of control", "setting": "SRPK2 (human)", "result": 88, "unit": "%"}, {"measurement": "kinase still bound, per cent of control", "setting": "MAPK9 (human)", "result": 1.5, "unit": "%"}, {"measurement": "kinase still bound, per cent of control", "setting": "IRAK4 (human)", "result": 5.8, "unit": "%"}, {"measurement": "kinase still bound, per cent of control", "setting": "FGR (human)", "result": 36, "unit": "%"}, {"measurement": "kinase still bound, per cent of control", "setting": "RAF1 (human)", "result": 59, "unit": "%"}, {"measurement": "kinase still bound, per cent of control", "setting": "CRK2 (P.falciparum)", "result": 94, "unit": "%"}, {"measurement": "kinase still bound, per cent of control", "setting": "RIPK2 (human)", "result": 2.6, "unit": "%"}, {"measurement": "kinase still bound, per cent of control", "setting": "TGFBR2 (human)", "result": 9, "unit": "%"}, {"measurement": "kinase still bound, per cent of control", "setting": "ROCK2 (human)", "result": 20, "unit": "%"}, {"measurement": "kinase still bound, per cent of control", "setting": "ULK1 (human)", "result": 6.6, "unit": "%"}, {"measurement": "kinase still bound, per cent of control", "setting": "SRMS (human)", "result": 27, "unit": "%"}]}
